Several values for one entry are separate records, joined by “and”; a condition that tells them apart may be missing. Identical values can stand only once. Like-named read-outs stand apart in the source and are kept apart here.
Assays:
[1] = target: T1, glycine receptors (Rattus norvegicus, UniProt P07727); test: Glycine receptors in Xenopus oocytes (selectivity); format: cell-based; conditions: 20 μM
T1 construct: expressed in transfected cells; host or cells: Xenopus laevis oocytes; cDNA from Dr. D. Weiss
T1 sequence (P07727 29-457): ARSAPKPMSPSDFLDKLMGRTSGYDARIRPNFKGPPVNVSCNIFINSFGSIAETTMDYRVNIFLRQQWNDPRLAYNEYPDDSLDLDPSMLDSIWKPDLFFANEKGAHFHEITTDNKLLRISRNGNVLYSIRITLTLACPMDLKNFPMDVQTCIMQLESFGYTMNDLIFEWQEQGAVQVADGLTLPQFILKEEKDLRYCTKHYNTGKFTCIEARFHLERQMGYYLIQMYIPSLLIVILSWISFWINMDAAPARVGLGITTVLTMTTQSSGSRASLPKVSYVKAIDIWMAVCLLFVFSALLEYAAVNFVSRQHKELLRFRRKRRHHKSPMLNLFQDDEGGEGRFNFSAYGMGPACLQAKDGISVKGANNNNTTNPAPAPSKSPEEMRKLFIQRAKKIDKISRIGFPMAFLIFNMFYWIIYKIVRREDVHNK
Experimental: The numbers of oocytes recorded are in parentheses.
The cDNA was linearized by restriction enzymes (Thermo Fisher Scientific, Lithuania), and the cRNA encoding the receptor subunits was synthesized from the linear template cDNA using the mMESSAGE mMACHINE kit (Invitrogen/Thermo Fisher Scientific, Lithuania). The α1β1δγ nAChR subunits were injected at a 1:1:1:1 ratio while α4 […] nAChR subunits were injected at a 1:1 ratio. The cDNAs encoding GABA and glycine subunits were provided by Dr. D. Weiss (University of Texas Health Science Center at San Antonio). The cDNAs encoding nAChR subunits were provided by Drs. R. Papke (University of Florida) and S. Heinemann (Salk Institute). The cDNA encoding the purinergic receptor was provided by Dr. R. Hume (University of Michigan).
Responses in the presence of EU1180-438 were expressed as a percent of control calculated as the average of the responses before and after EU1180-438 exposure. […]
Defolliculated Xenopus laevis oocytes (stage V-VI) were obtained from Ecocyte BioScience (Austin, Texas), or prepared from commercially available Xenopus ovaries (Xenopus 1, Dexter, MI) as previously described (Hansen, et al., Mol. Pharmacol., 2013). […] Recording electrodes were filled with 0.3-3.0 M KCl, and current responses were recorded at a holding potential of −40 mV.

[2] = In vivo pharmacokinetics and brain penetration in mice; parameters: species or system mouse
Experimental: EU1180-438 was dosed at 20 mg/kg intraperitoneal in seven freely-fed male C57BL/6 mice. EU1180-438 was formulated in 5% DMA, 10% PEG, 30% HPBCD, qs to volume w/water.
Plasma was sampled at seven points: pre-dose, 0.25, 0.5, 1, 2, 4, and 8 hours (n=3 per time point, 21 plasma samples per treatment group). […] Samples were analyzed via LC-MS/MS to quantify the amount of parent compound present in each sample.
EU1180-438 was tested in male C57BL/6 mice for brain penetrability. After a single intraperitoneal dose of 20 mg/kg the concentration of EU1180-438 in the plasma was measured. […] The concentration of EU1180-438 in the brain was also measured to determine if the compound can pass the blood-brain barrier. The compound was detected in the brain tissue up to 8 hours after dosage administration.

[3] = mice, 20 mg/kg intraperitoneal, 0.25 hour, 20 mg/kg
[4] = mice, 20 mg/kg intraperitoneal, 1 hour, 20 mg/kg
[5] = mice, 20 mg/kg intraperitoneal, 8 hour, 20 mg/kg

activity at glycine receptors [1]: virtually no activity
time after dosage up to which compound was detected in brain tissue ([2]; male C57BL/6 mice, 20 mg/kg intraperitoneal): up to 8 hours
max concentration in plasma ([2]; male C57BL/6 mice, single intraperitoneal dose of 20 mg/kg): 2.75 µM
concentration at 0.25 h ([2]; male, C57BL/6, mouse, brain, ip, 20 mg/kg, mice, 20 mg/kg intraperitoneal, 0.25 hour, read-out: Brain Concentration): 3680 nM
Kp at 0.25 h ([2]; male, C57BL/6, mouse, brain, ip, 20 mg/kg, mice, 20 mg/kg intraperitoneal, 0.25 hour, read-out: Brain to Plasma Ratio): 1.6
Kp at 0.25 h ([2]; male, C57BL/6, mouse, brain, ip, 20 mg/kg, mice, 20 mg/kg intraperitoneal, 0.25 hour, read-out: Mean Ratio (brain to plasma)): 1.74
concentration at 1 h ([2]; male, C57BL/6, mouse, brain, ip, 20 mg/kg, mice, 20 mg/kg intraperitoneal, 1 hour, read-out: Brain Concentration): 1960 nM
Kp at 1 h ([2]; male, C57BL/6, mouse, brain, ip, 20 mg/kg, mice, 20 mg/kg intraperitoneal, 1 hour, read-out: Brain to Plasma Ratio): 1.57
Kp at 1 h ([2]; male, C57BL/6, mouse, brain, ip, 20 mg/kg, mice, 20 mg/kg intraperitoneal, 1 hour, read-out: Mean Ratio (brain to plasma)): 1.79
concentration at 2 h ([2]; male, C57BL/6, mouse, brain, ip, 20 mg/kg, mice, 20 mg/kg intraperitoneal, 2 hour, read-out: Brain Concentration): 1050 nM
Kp at 2 h ([2]; male, C57BL/6, mouse, brain, ip, 20 mg/kg, mice, 20 mg/kg intraperitoneal, 2 hour, read-out: Mean Ratio (brain to plasma)): 0.88
concentration at 8 h ([2]; male, C57BL/6, mouse, brain, ip, 20 mg/kg, mice, 20 mg/kg intraperitoneal, 8 hour, read-out: Brain Concentration): 60 nM
Kp at 8 h ([2]; male, C57BL/6, mouse, brain, ip, 20 mg/kg, mice, 20 mg/kg intraperitoneal, 8 hour, read-out: Brain to Plasma Ratio): 1.37
Kp at 8 h ([2]; male, C57BL/6, mouse, brain, ip, 20 mg/kg, mice, 20 mg/kg intraperitoneal, 8 hour, read-out: Mean Ratio (brain to plasma)): 1.02
concentration at 0.25 h ([2]; male, C57BL/6, mouse, plasma, ip, 20 mg/kg, mice, 20 mg/kg intraperitoneal, 0.25 hour, read-out: Plasma Concentration): 2300 nM
concentration at 1 h ([2]; male, C57BL/6, mouse, plasma, ip, 20 mg/kg, mice, 20 mg/kg intraperitoneal, 1 hour, read-out: Plasma Concentration): 1250 nM
concentration at 2 h ([2]; male, C57BL/6, mouse, plasma, ip, 20 mg/kg, mice, 20 mg/kg intraperitoneal, 2 hour, read-out: Plasma Concentration): 890 nM
concentration at 8 h ([2]; male, C57BL/6, mouse, plasma, ip, 20 mg/kg, mice, 20 mg/kg intraperitoneal, 8 hour, read-out: Plasma Concentration): 50 nM
Brain to Plasma Ratio [2, 3]: 1.98 and 1.64
Plasma Concentration [2, 3]: 2050 nM and 2210 nM
concentration at 0.25 h ([2]; mice, 20 mg/kg intraperitoneal, 0.25 hour, 20 mg/kg, read-out: Brain Concentration): 4060 nM and 3630 nM
Brain to Plasma Ratio [2, 4]: 1.96 and 1.83
Plasma Concentration [2, 4]: 1040 nM and 1170 nM
concentration at 0.25 h ([2]; mice, 20 mg/kg intraperitoneal, 1 hour, 20 mg/kg, read-out: Brain Concentration): 2040 nM and 2140 nM
Plasma Concentration ([2]; mice, 20 mg/kg intraperitoneal, 2 hour, 20 mg/kg): 920 nM and 960 nM
concentration at 0.25 h ([2]; mice, 20 mg/kg intraperitoneal, 2 hour, 20 mg/kg, read-out: Brain Concentration): 660 nM and 690 nM
Brain to Plasma Ratio [2, 5]: 0.90 and 0.72
Plasma Concentration [2, 5]: 40 nM
concentration at 0.25 h ([2]; mice, 20 mg/kg intraperitoneal, 8 hour, 20 mg/kg, read-out: Brain Concentration): 40 nM and 30 nM
half-life ([2]; mouse, ip, plasma, male C57BL/6 mice, 20 mg/kg intraperitoneal): 1.57 h
Structure (SMILES): COc1ccc(OCC(c2ccc(OC)cc2)N2Cc3ccccc3C2=O)cc1 (racemic) [EU1180-438, 2-(2-(4-methoxyphenoxy)-1-(4-methoxyphenyl)ethyl)isoindolin-1-one]

From patent publication US20230339854A1, “Negative Allosteric Modulation of GluN3-Containing N-Methyl-D-Aspartate Receptors” (Emory University, priority 2020, published 2023)
